Laboratory results reported in patent US8383816B2, “Aryl-quinolyl compounds and their use” (Cancer Research Technology Limited, priority 2008, dated 2013).

Experiments:
[1] = tested on: pERK; test: Cell Based Phospho-ERK Assay; details: 6 h, cells incubated with test compound for 6 hours
Protocol: Biological Methods—Cell Based Phosho-ERK Assay
Compounds were assessed using a cell-based assay which was performed according to the following protocol.
Plate out 16,000 cells/well in 99 μL medium in a 96-well plate.
1. Add 1 μL inhibitor to the cells […].
2. Incubate the cells with test compound for 6 hours at 37° C.
3. Aspirate off the solution from all of the wells.
4. Fixate the cells with 100 μL 4% formaldehyde/0.25% Triton X-100 PBS per well.
5. Incubate the plate for 1 hour at 4° C.
6. Aspirate off the fixing solution and add 300 μL TBS per well.
7. Leave the plate overnight at 4° C.
1. Wash the plate 2× with 200 μL PBS per well.
2. Block with 100 μL 5% dried milk in TBS.
3. Incubate the plate for 20 minutes at 37° C.
4. Wash the plate 2× with 0.1% tween/H2O.
5. Add 50 μL of 3 μg/mL primary antibody pERK (Sigma M8159), diluted in 5% milk powder/TBS, to each well.
6. Incubate the plate for 2 hours at 37° C.
7. Wash the plate 3× with 0.1% tween/H2O.
8. Add 50 μL of 0.45 μg/mL secondary Europium-labelled anti-mouse antibody (Perkin Elmer) to each well.
9. Incubate the plate for 1 hour at 37° C.
10. Wash the plate 3× with 0.1% tween/H2O.
11. Add 100 μL enhancement solution (Perkin Elmer) to each well.
12. Leave the plate for approximately 10 minutes at room temperature before gently shaking the plate.
13. Read Europium Time Resolved Fluorescence in Victor2.
14. Wash the plate 2× with 0.1% tween/H2O.
15. Measure the protein concentration with BCA (Sigma) by adding 200 μL of solution per well.
16. Incubate the plate for 30 minutes at 37° C.
17. Read absorbance levels at 570 nm in a plate reader.
Note that Europium counts are normalised for protein levels by dividing counts by absorbance.
(§1) Values for the blank (no cells) are subtracted from all values. The DMSO controls are set as 100% activity and assay points (the response) are calculated as a percentage of the DMSO control. Data are plotted using Graphpad Prism software and a non-linear regression line is calculated using a variable slope sigmoidal dose-response equation (Y=Bottom+(Top−Bottom)/(1+10^((LogEC50−X)*HillSlope)) where X is the logarithm of concentration. Y is the response). The IC50 generated by this procedure is the concentration of the drug that produces a percentage control fluorescence value midway between the saturation, and zero-effect plateaus. Three independent assays are usually performed and the mean IC50 is reported.

[2] = tested on: WM266.4 melanoma cells; test: SRB Cell Proliferation Assay (SRB GI50); format: cell-based; details: Homo sapiens, WM 266-4, 144 h, 6 days growth
Protocol: Biological Methods—SRB Cell Proliferation Assay (SRB GI50)
Cultures of WM266.4 melanoma cells are routinely cultured in DMEM/10% foetal bovine serum, at 37° C., in 5% CO2 water saturated atmosphere. Cultures are maintained in exponential growth phase by sub-culturing before having become confluent (3-5 day intervals). Single cell suspensions are prepared by harvesting an 80 cm^2 tissue culture flask with 5 mL commercial trypsin EDTA. After 5 minutes, the detached cells are mixed with 5 mL fully complemented culture medium and centrifugally pelleted (1000 rpm for 7 minutes). After aspirating the supernatant, the cell pellet is re-suspended in 10 mL fresh medium and the cells fully disaggregated by drawing the whole volume up/down 5 times through a 19-gauge needle. The concentration of the cells is determined using a haemocytometer (1/10 dilution). A suitable volume to give at least a 2-fold excess for the number of tests being conducted, typically 100-200 mL, is prepared by diluting the cell suspension to 10,000/mL, and 100 μL/well dispensed into 96 well plates using a programmable 8-channel peristaltic pump, giving 1000 cells/well, leaving column 12 blank. The plates are returned to the incubator for 24 hours to allow the cells to re-attach.
The compounds being tested are prepared at 20 mM in dimethylsulphoxide. Aliquots (200 μL) are diluted into 20 mL culture medium giving 200 μM, and 10 serial dilutions of 3× performed by transferring 5 mL to 10 mL. Aliquots (100 μL) of each dilution are added to the wells, using an 8-channel pipettor, thus performing a final further 2× dilution, and giving doses ranging from 100 μM to 0.005 μM. Column 11 receives plain culture medium only. Each compound is tested in quadruplicate, each replicate being the average of four wells, and two plates per compound.
After a further 6 days growth, the plates are emptied, and the cells are fixed in 10% trichloroacteic acid for 10 minutes on ice. After thorough rinsing in running tap water, the plates are dried, and stained by adding 50 μL of a solution of 0.1% sulphorhodamine-B in 1% acetic acid, for 10 minutes at room temperature. The stain is poured out and the plates thoroughly rinsed under a stream of 1% acetic acid, thus removing unbound stain, and dried. The bound stain is taken into solution by addition of 150 μL Tris buffer pH 8, followed by 10 minutes on a plate-shaker (approximately 500 rpm). The absorbance at 540 nm in each well (being proportional to the number of cells present) is determined using a plate reader.
After averaging the results in rows A-D and E-H, the blank value (row 12) is subtracted, and results expressed as percentage of the untreated value (row 11). […] The GI50 generated by this procedure is the concentration of the drug that produces a percentage control A540 midway between the saturation, and zero-effect plateaus.

[3] = molecular target: B-RAF (Homo sapiens, UniProt P15056, V600E); test: DELFIA Kinase Assay; format: biochemical; details: 100 μM ATP
Sequence of B-RAF (P15056 whole entry V600E): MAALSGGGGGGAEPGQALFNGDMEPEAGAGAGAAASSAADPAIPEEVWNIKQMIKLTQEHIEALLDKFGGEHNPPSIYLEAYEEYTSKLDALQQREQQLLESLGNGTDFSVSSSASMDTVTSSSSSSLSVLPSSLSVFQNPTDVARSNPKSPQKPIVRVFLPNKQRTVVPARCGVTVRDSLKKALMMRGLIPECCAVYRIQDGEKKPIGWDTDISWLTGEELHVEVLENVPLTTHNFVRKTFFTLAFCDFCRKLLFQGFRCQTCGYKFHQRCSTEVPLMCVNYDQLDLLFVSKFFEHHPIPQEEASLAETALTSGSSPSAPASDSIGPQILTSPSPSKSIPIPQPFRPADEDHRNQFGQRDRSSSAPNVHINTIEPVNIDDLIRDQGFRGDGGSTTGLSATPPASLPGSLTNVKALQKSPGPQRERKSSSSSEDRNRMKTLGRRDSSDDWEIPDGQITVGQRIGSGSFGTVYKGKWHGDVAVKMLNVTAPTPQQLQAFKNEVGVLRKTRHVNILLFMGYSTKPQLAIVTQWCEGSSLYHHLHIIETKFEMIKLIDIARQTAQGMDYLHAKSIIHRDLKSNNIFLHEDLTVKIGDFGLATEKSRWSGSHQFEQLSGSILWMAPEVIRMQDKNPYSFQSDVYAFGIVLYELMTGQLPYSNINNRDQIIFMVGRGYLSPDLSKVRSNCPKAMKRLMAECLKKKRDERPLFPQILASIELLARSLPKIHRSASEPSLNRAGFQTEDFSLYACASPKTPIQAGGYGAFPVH
Protocol: Biological Methods—DELFIA Kinase Assay
Compounds were assessed by a kinase assay performed according to the following protocol.
DELFIA Kinase Buffer (DKB):
DKB1 (DKB with B-RAF and MEK Protein):
Combine 4950 μL of DKB and 50 μL of 2.5 mg/ml GST-MEK stock (to give […] of MEK per 40 μL). Then add 22.5 μL of B-RAF to give ˜0.2 μL of B-RAF per 40 μL.
DKB2 (DKB with MEK Protein):
Combine 4950 μL of DKB and 50 μL of 2.5 mg/ml GST-MEK stock (to give 1 mg of MEK per 40 μL). Use 500 μL of this for the blow out (BO) and the empty vector (EV) control.
100 mM stock, dilute to 500 μM to give 100 μM final concentration in assay.
Inhibitors (Test Compounds):
Phospho-MEK½ CST #9121S diluted 1:1000 in DELFIA assay buffer (AB). Preincubate antibody in the AB for 30 minutes at room temperature prior to use.
Anti-rabbit-Eur labelled secondary Perkin Elmer #AD0105 diluted 1:1000 in DELFIA assay buffer (AB). Preincubate antibody in the AB for 30 minutes at room temperature prior to use. (Primary and secondary antibodies were incubated together.)
1. Preblock wells with 5% milk in TBS for 1 hour.
2. Wash wells with 3× with 200 μL TBS.
3. Plate out 40 μL of DKB1 for all inhibitors (test compounds), DMSO control, and optionally other control compounds.
4. Plate out 40 μL of DKB2 for BO and EV wells.
5. Add inhibitors (test compounds) at 0.5 μL per well according to desired plate layout.
6. Add 0.5 μL DMSO to vehicle control wells.
7. Add 2 μL of B-RAF to BO and EV wells.
8. Pre-incubate with inhibitors (test compounds) for 10 minutes at room temperature with shaking.
9. Add 10 μL of 500 μM ATP stock, in DKB, to give 100 μM assay concentration.
10. Seal plates with TopSeal and incubate at room temperature with shaking for 45 minutes.
11. Wash plates 3× with 200 μL 0.1% Tween20/Water to terminate reaction.
12. Add 50 μL per well of antibody mix and incubate for 1 hour at room temperature with shaking.
13. Wash plates 3× with 200 μL 0.1% Tween20/Water.
14. Add 100 μL DELFIA enhancement solution per well, cover in foil, and incubate at room temperature for 30 minutes with shaking.
15. Read on Victor using Europium protocol.
as §1, with “(Empty Vector)” for “(no cells)”

IC50 [1]	GI50 [2]	IC50 [3]	Structure (SMILES)
≤ 10 µM	≤ 10 µM	≤ 1 µM	O=C(Nc1cc(C(F)(F)F)ccc1F)Nc1ccc(Oc2ccnc3[nH]c(=O)[nH]c23)c2cccnc12 [AA-010, 4-[(5-Oxy-quinolinyl-8-amino)carbonylamino-(2-fluoro-5-trifluoromethyl-phenyl)]-pyridin-5,6-imidazolone]
≤ 10 µM	≤ 10 µM	≤ 1 µM	Cc1nc2c(Oc3ccc(NC(=O)Nc4cc(C(F)(F)F)ccc4F)c4ncccc34)ccnc2[nH]c1=O [BB-001, 5-[(8-Amino-quinolinyl-5-oxy)carbonylamino-(2-fluoro-5-trifloromethylphenyl)]-pyridin-[2,3]-3-methylpyrazin-2-one]
≤ 10 µM	≤ 10 µM	≤ 1 µM	Cc1nc2c(Oc3ccc(NC(=O)Nc4cc(C(C)(C)C)nn4-c4ccccc4)c4ncccc34)ccnc2[nH]c1=O [BB-003, 5-[(8-Amino-quinolinyl-5-oxy)carbonylamino-5-(1-N-p-phenyl-3-t-butyl-imidazolyl)]-pyridin-[2,3]-3-methylpyrazin-2-one]
≤ 10 µM	≤ 10 µM	≤ 1 µM	O=C(Nc1cc(C(F)(F)F)ccc1F)Nc1ccc(Oc2ccnc3ncc(=O)[nH]c23)c2cccnc12 [BB-004, 5-[(8-Amino-quinolinyl-5-oxy)carbonylamino-5-(2-fluoro-5-trifluoromethyl-phenyl)]-pyridin-[2,3]pyrazin-3-one]
≤ 10 µM	≤ 10 µM	≤ 1 µM	O=C(Nc1cc(C(F)(F)F)ccc1F)Nc1ccc(Oc2ccnc3[nH]c(=O)cnc23)c2cccnc12 [BB-005, 5-[(8-Amino-quinolinyl-5-oxy)carbonylamino-5-(2-fluoro-5-trifluoromethyl-phenyl)]-pyridin-[2,3]pyrazin-2-one]
≤ 10 µM	≤ 10 µM	≤ 1 µM	Cc1nc2c(Oc3ccc(NC(=O)Nc4cc(C(C)(C)C)nn4C)c4ncccc34)ccnc2[nH]c1=O [BB-006, 5-[(8-Amino-quinolinyl-5-oxy)carbonylamino-5-(1-methyl-3-t-butyl-imidazolyl)]-pyridin-[2,3]-3-methylpyrazin-2-one]

Second part, the compound before the results:

Structure (SMILES)	IC50 [1]	GI50 [2]	IC50 [3]
Cn1c(=O)[nH]c2c(Oc3ccc(NC(=O)Nc4ccc(Cl)c(C(F)(F)F)c4)c4ncccc34)ccnc21 [AA-014, 5-[(8-Amino-quinolinyl-5-oxy)carbonylamino-3-(2-trifluoromethyl-3-chloro-phenyl)]-pyridin-[2,3]-N-methylimidazol-2-one]	≤ 10 µM	≤ 10 µM	≤ 1 µM
Cn1nc(C(C)(C)C)cc1NC(=O)Nc1ccc(Oc2ccnc3c2[nH]c(=O)n3C)c2cccnc12 [AA-017, 5-[(8-Amino-quinolinyl-5-oxy)carbonylamino-5-(1-methyl-3-t-butyl-imidazolyl)]-pyridin-[2,3]1-N-methylimidazol-2-one]	≤ 10 µM	≤ 10 µM	≤ 1 µM
Cn1c(=O)[nH]c2c(Oc3ccc(NC(=O)Nc4cccc(C(C)(C)C)c4)c4ncccc34)ccnc21 [AA-018, 5-[(8-Amino-quinolinyl-5-oxy)carbonylamino-3-(t-butyl-phenyl)]-pyridin-[2,3]1-N-methylimidazol-2-one]	≤ 10 µM	≤ 10 µM	≤ 1 µM
Cc1ccc(-n2nc(C(C)(C)C)cc2NC(=O)Nc2ccc(Oc3ccnc4[nH]c(=O)cnc34)c3cccnc23)cc1 [BB-007, 5-[(8-Amino-quinolinyl-5-oxy)carbonylamino-5-(1-N-p-tolyl-3-t-butyl-imidazolyl)]-pyridin-[2,3]pyrazin-2-one]	≤ 10 µM	≤ 10 µM	≤ 1 µM
CC(C)(C)c1cc(NC(=O)Nc2ccc(Oc3ccnc4[nH]c(=O)cnc34)c3cccnc23)n(-c2ccccc2)n1 [BB-008, 5-[(8-Amino-quinolinyl-5-oxy)carbonylamino-5-(1-N-phenyl-3-t-butyl-imidazolyl)]-pyridin-[2,3]pyrazin-2-one]	≤ 10 µM	≤ 10 µM	≤ 1 µM
C=CCn1nc(C(C)(C)C)cc1NC(=O)Nc1ccc(Oc2ccnc3[nH]c(=O)c(C)nc23)c2cccnc12 [BB-009]	≤ 10 µM	≤ 10 µM	≤ 1 µM
C#CCn1nc(C(C)(C)C)cc1NC(=O)Nc1ccc(Oc2ccnc3[nH]c(=O)c(C)nc23)c2cccnc12 [BB-011]	≤ 10 µM	≤ 10 µM	≤ 1 µM
C#CCn1nc(C(C)(C)C)cc1NC(=O)Nc1ccc(Oc2ccnc3[nH]c(=O)cnc23)c2cccnc12 [BB-012]	≤ 10 µM	≤ 10 µM	≤ 1 µM
